In patent publication US9387235B2, “Cosmetic preparations containing PTH fragments” (BASF Beauty Care Solutions France S.A.S., priority 2004, dated 2016):
No end group written: not given here.

Experiments:
protein kinase C (PKC) = conditions: osteosarcoma cells of ROS 17/2 rats; Jouishomme et al. 1992, 1994; cited from earlier work
human dermal fibroblast = test: Human dermal fibroblast mRNA profile on cDNA-array (Panhuman 10K); type: cell-based; conditions: for Expression evolution / Log2 (treated/non-treated): 5 μg/ml
Description: The aim of this study is to detect the variation of mRNA profile of human dermal fibroblast induced by treatment with the PTH(29-32) peptide fragment.
Normal human dermal fibroblast were cultured in standard medium supplemented with foetal calf serum (FCS) during three days in a 5% CO2 atmosphere. After cultures, the medium was changed by a standard medium either supplemented with PTH(29-32) peptide fragment at 5 μg/ml or not. After an incubation of either 3 or 24 hours, cultures were arrested and total RNAs of the different cultures were extracted. The cDNAs obtained from peptide-treated RNAs or from non-treated RNAs were labelled with cyanine-3 and cyanine-5, respectively.
Mixture of treated and non-treated cDNAs were hybridised on commercially Panhuman® 10K (MW Biotech, Roissy Charles-de-Gaulle, France) cDNA-array allowing to study near to 10,000 gene expressions. After highly stringent washing, cyanine-3 and cyanine-5 fluorescences were measured, allowing to evaluate a […] expression ratio of each analyzed gene.
Results are expressed as Log2 of the ratio between the measured expression of genes in the treated vs non-treated conditions.

human dermis fibroblasts = test: Effects on the growth of human dermis fibroblasts (DNA cell content, Hoechst 33258); type: cell-based; conditions: for DNA after culture for 3 days / DNA after culture for 6 days: % relative to control medium, mean of four tests in triplicate
Description: The object of this test is to examine the regenerating and revitalising activities of cultures of human dermis fibroblasts in vitro.
Human dermis fibroblasts were incubated in a standard medium for cell cultures with foetal calf serum (FCS). After culture for one day at 37° C. and with a 5% content of CO2, the medium was changed for a standard medium with different concentrations of peptides. After further incubation for three days and six days, the number of living cells was established by establishing the DNA cell content with a fluorescent probe (Hoechst 33258).

lumican = test: Stimulation of the synthesis of lumican on aged human dermal fibroblasts (immunocytochemistry, image analysis); type: cell-based; conditions: aged human dermal fibroblasts in culture
Description: Human dermal fibroblasts cell suspension were prepared by standard digestion by collagenase of human adult dermis specimens collected from plastic surgery.
After repeated passages (Hayflick model) to mimic ageing in vitro, human dermal fibroblasts were seeded in DMEM for 2 days at 37° C., CO2=5%. Then, acetyl-QDVH (1 and 3 μg/ml) is introduced and after 6 days of incubation at 37° C., CO2=5%, the expression of the lumican synthesis was evaluated on glass slides by immunocytochemistry.
Quantification of the staining was carried out by image analysis.
The results are expressed as the sum of the product of number of pixels by green detected values (arbitrary unit).

collagen type I = test: Collagen type I gene expression in human dermal fibroblasts (quantitative RT-PCR); type: cell-based; conditions: for Ratio versus calibrator (collagen type I mRNA): incubation for 1 day, EF1α reference gene; for rate of collagen type I gene expression (in words): human dermal fibroblasts
Description: Human dermal fibroblasts are seeded and incubated for 3 to 5 days at 37° C., CO2=5%.
After exchange of cell culture medium to a defined cell culture medium with the products to be tested, incubation for 1 day at 37° C., CO2=5%. The recovering of cells and numeration before recovering of RNA from human dermal fibroblasts cultured in vitro.
The level of mRNA encoding the collagen type I was evaluated by quantitative RT-PCR or real time RT-PCR.
The results are firstly expressed by the crossing point (CP) which refers to the number of cycle required for the rising of a distinct fluorescence. Then the results of each sample, are calculated as a ratio referring to a reference gene or “house keeping” gene: CP of target/CP of reference gene. EF1α gene was used as internal control gene to normalise the mRNA evaluation.

[1] = col1a1, alpha 1 type i collagen, 3 h incubation
[2] = cspg2, chondroitin sulfate 2 (versican), 3 h incubation
[3] = cspg2, chondroitin sulfate 2 (versican), 24 h incubation
[4] = ctgf, connective tissue growth factor, 3 h incubation
[5] = ctgf, connective tissue growth factor, 24 h incubation
[6] = fgf2, fibroblast growth factor 2, 3 h incubation
[7] = gpc1, glypican 1 precursor, 3 h incubation
[8] = gpc1, glypican 1 precursor, 24 h incubation
[9] = itga2b, integrin alpha 2b, 3 h incubation
[10] = itgb4, integrin, beta 4, 24 h incubation
[11] = itgb5, integrin, beta 5, 3 h incubation
[12] = itgb5, integrin, beta 5, 24 h incubation
[13] = nid, nidogen (enactin), 3 h incubation
[14] = nid, nidogen (enactin), 24 h incubation
[15] = tgfbr3, transforming growth factor, beta receptor III (betaglycan), 3 h incubation
[16] = tgfbr3, transforming growth factor, beta receptor III (betaglycan), 24 h incubation
[17] = thbs1, thrombospondin 1, 24 h incubation
[18] = timp1, tissue inhibitor of metalloproteinase 1, 3 h incubation

In the case of “Gln-Asp-Val-His (QDVH; Fragment of a parathyroid hormone)”, the “activation of protein kinase C (in words)” value (protein kinase C (PKC)) is given as “minimum domain of PTH in a position to function fully in the activation of PKC”, the Expression evolution (human dermal fibroblast; bgn, biglycan, 3 h incubation) is given as “increase” and the “Log2 (treated/non-treated)” value (human dermal fibroblast; bgn, biglycan, 3 h incubation) is given as 2.16. The Expression evolution (human dermal fibroblast; bgn, biglycan, 24 h incubation) was “increase”, the “Log2 (treated/non-treated)” value (human dermal fibroblast; bgn, biglycan, 24 h incubation) was 0.66 and the Expression evolution (human dermal fibroblast; [1]) was “increase”. The “Log2 (treated/non-treated)” value (human dermal fibroblast; [1]) was 0.93, the Expression evolution (human dermal fibroblast; [2]) was “increase” and the “Log2 (treated/non-treated)” value (human dermal fibroblast; [2]) was 1.32. For the same substance, the Expression evolution (human dermal fibroblast; [3]) was “increase”, the “Log2 (treated/non-treated)” value (human dermal fibroblast; [3]) was 1.20 and the Expression evolution (human dermal fibroblast; [4]) was “increase”. For the same substance, the “Log2 (treated/non-treated)” value (human dermal fibroblast; [4]) was 0.77, the Expression evolution (human dermal fibroblast; [5]) was “increase” and the “Log2 (treated/non-treated)” value (human dermal fibroblast; [5]) was 0.74. The Expression evolution (human dermal fibroblast; [6]) was “increase”, the “Log2 (treated/non-treated)” value (human dermal fibroblast; [6]) was 0.86 and the Expression evolution (human dermal fibroblast; [7]) was “no variation”. For the same substance, the “Log2 (treated/non-treated)” value (human dermal fibroblast; [7]) was −0.17, the Expression evolution (human dermal fibroblast; [8]) was “increase” and the “Log2 (treated/non-treated)” value (human dermal fibroblast; [8]) was 0.73. The “expression of fibroblast genes (in words)” value (human dermal fibroblast; growth factors, extra-cellular matrix components, DEJ components) was “stimulates the expression of some genes”, the Expression evolution (human dermal fibroblast; [9]) was “increase” and the “Log2 (treated/non-treated)” value (human dermal fibroblast; [9]) was 0.50. The “Log2 (treated/non-treated)” value (human dermal fibroblast; itga2b, integrin alpha 2b, 24 h incubation) was 0.15, the Expression evolution (human dermal fibroblast; [10]) was “increase” and the “Log2 (treated/non-treated)” value (human dermal fibroblast; [10]) was 1.15. The Expression evolution (human dermal fibroblast; [11]) was “no variation”, the “Log2 (treated/non-treated)” value (human dermal fibroblast; [11]) was 0.05 and the Expression evolution (human dermal fibroblast; [12]) was “increase”. The “Log2 (treated/non-treated)” value (human dermal fibroblast; [12]) was 0.68, the Expression evolution (human dermal fibroblast; [13]) was “increase” and the “Log2 (treated/non-treated)” value (human dermal fibroblast; [13]) was 1.76. For the same substance, the Expression evolution (human dermal fibroblast; [14]) was “increase”, the “Log2 (treated/non-treated)” value (human dermal fibroblast; [14]) was 0.58 and the Expression evolution (human dermal fibroblast; [15]) was “increase”. The “Log2 (treated/non-treated)” value (human dermal fibroblast; [15]) was 2.00, the Expression evolution (human dermal fibroblast; [16]) was “increase” and the “Log2 (treated/non-treated)” value (human dermal fibroblast; [16]) was 1.54. The Expression evolution (human dermal fibroblast; [17]) was “increase”, the “Log2 (treated/non-treated)” value (human dermal fibroblast; [17]) was 1.52 and the Expression evolution (human dermal fibroblast; [18]) was “increase”. The “Log2 (treated/non-treated)” value (human dermal fibroblast; [18]) was 0.15, the “Log2 (treated/non-treated)” value (human dermal fibroblast; timp1, tissue inhibitor of metalloproteinase 1, 24 h incubation) was −0.25 and the “growth of human dermis fibroblasts (in words)” value (human dermis fibroblasts; fibroblasts cultivated from biopsies of healthy adult subjects) was “stimulates the growth of human dermis fibroblasts”. For the same substance, the “DNA after culture for 3 days” value (human dermis fibroblasts; peptide 0.001 %) was 162%, the “DNA after culture for 6 days” value (human dermis fibroblasts; peptide 0.001 %) was 119% and the “DNA after culture for 3 days” value (human dermis fibroblasts; peptide 0.003 %) was 155%. The “DNA after culture for 6 days” value (human dermis fibroblasts; peptide 0.003 %) was 115% and the “persistence of growth-stimulating activity (in words)” value (human dermis fibroblasts; without any change in the cell culture medium) was “still detectable after 6 days”.
With “IL-4: IL4 (positive control) obtained from SIGMA [reference compound]” the “lumican expression (in words)” value (lumican) was “increase of lumican expression”.
For “Leu-Gln-Asp-Val-His-Asn-Phe (LQDVHNF; Fragment of a parathyroid hormone) [PTH region (28 to 34)]”, the “activation of protein kinase C (in words)” value (protein kinase C (PKC)) is listed as “stimulator of the protein kinase C (PKC)”.
In the case of TGFβ [reference compound], the “Ratio versus calibrator (collagen type I mRNA)” value (from here on “Ratio versus calibrator”) (collagen type I; 10 ng/ml) is reported as 2.12 and the “rate of collagen type I gene expression (in words)” value (collagen type I) is reported as “strongly enhanced”.
In the case of “acetyl-Gln-Asp-Val-His (Ac-QDVH) [Acetyl-QDVH, acetylated PTH (29-32) peptide fragment]”, the “Ratio versus calibrator” value (collagen type I; 3 μg/ml) is reported as 1.05, the “Ratio versus calibrator” value (collagen type I; 10 μg/ml) is reported as 1.18 and the “rate of collagen type I gene expression (in words)” value (collagen type I) is reported as “significantly enhanced”. For the same substance, the “lumican expression (in words)” value (lumican; listed as acetyl-Gln-Asp-Val-His) was “increase of lumican expression” and the “lumican expression (in words)” value (lumican; listed as acetyl-QDVH) was “significantly stimulated the expression of lumican with a dose-dependent effect”.
